# Assay results published in patent US20240271104A1, “COLONIZATION OF SURFACES WITH BIOLOGICAL CELLS” (Eberhard Karls Universität Tübingen Medizinische Fakultät, priority 2021, published 2024).
# Columns and labels:
# Type in all cases: cell-based, human
# HUVECs [1] = experiment: Metabolic labeling of HUVECs with azide groups, detection with DBCO-Sulfo-Cy3 by flow cytometry; conditions: 50 μM Ac4ManNAz 48 h, then 5 μM DBCO-Sulfo-Cy3 1 h
# Method: To functionalize the cell surface of HUVECs with azide groups, 2×10^5 HUVECs per well of a 6-well plate were seeded and treated with or without 50 μM N-azidoacetylmannosamine-tetraacylated (Ac4ManNAz, Sigma Aldrich) in 2 ml medium for 48 h at 37° C. with 5% CO2. To detect the formed azido groups, the cells were washed with DPBS without Ca^2+/Mg^2+ and incubated with 5 μM DBCO-Sulfo-Cy3 (Jena Bioscience, Germany) in DPBS with Ca^2+/Mg^2+ for 1 h at 37° C. and 5% CO2. Cells were washed three times with 10 ml DPBS, detached with trypsin/EDTA (0.04%/0.03%) and centrifuged at 300×g for 5 min. The cell pellet was resuspended in 0.5 ml DPBS, and Cy3 labeling of 10,000 cells was analyzed by flow cytometry (FACS SCAN, BD, Heidelberg, Germany). In addition to the flow cytometric analyses, cells were stained for 30 minutes with ActinGreen™ 488 ReadyP-robes® reagent (Invitrogen) for the cytoskeleton and for 5 minutes with 0.2 μg/ml DAPI (Sigma Aldrich) to visualize the nuclei.
# HUVECs [2] = experiment: PrestoBlue cell viability assay after metabolic labeling; conditions: 50 μM Ac4ManNAz 48 h
# Method: The influence of metabolic labeling on the viability of HUVECs was investigated 48 hours after labeling with 50 µM Ac4ManNAz using the PrestoBlue assay (Invitrogen, Carlsbad, USA). For this purpose, 500 μL of 1× Presto Blue cell viability reagent was added to each well of a 6-well plate and incubated for 1.5 h at 37° C. The fluorescence intensity of 100 μL supernatant was measured in triplicate at an excitation wavelength of 530 nm and an emission wavelength of 600 nm using a multimode microplate reader (Mithras LB 940, Berthold Technologies, Bad Wildbad, Germany).
# [3] = system: endothelial layer on HFMs; experiment: Reactivity of the endothelial layer on HFMs to an inflammatory stimulus (qRT-PCR of adhesion molecules); conditions: 50 ng/mL TNF-α, 4 hours, mRNA normalized to GAPDH
# Method: Endothelialized HFMs were incubated for 4 hours without or with 50 ng/mL tumor necrosis factor α (TNF-α, Sigma-Aldrich) in EGM™-2 endothelial cell growth medium without hydrocortisone. After incubation, HFMs were washed twice with DPBS and total RNA was isolated. Expression of the activation markers, endothelial leukocyte adhesion molecule 1 (E-selectin), vascular cell adhesion molecule 1 (VCAM-1) and intercellular adhesion molecule 1 (ICAM-1), was detected by qRT-PCR.
# After 40 cycles, melting was performed.
Compound,Cy3-positive cells (N3 groups on the cell surface) (HUVECs [1]),effect on viability of HUVECs (HUVECs [2]),E-selectin expression compared to non-stimulated endothelial layer [3] [fold],ICAM-1 expression compared to non-stimulated endothelial layer [3] [fold],VCAM-1 expression compared to non-stimulated endothelial layer [3] [fold]
"CC(=O)OC[C@H]1OC(OC(C)=O)[C@@H](NC(=O)CN=[N+]=[N-])[C@@H](OC(C)=O)[C@@H]1OC(C)=O (some centres unmarked) [Ac4ManNAz, N-azidoacetylmannosamine-tetraacylated]",about 98%,no effect,,,
tumor necrosis factor α [TNF-α],,,199,162,328
